Measured values: US6727244B2, “Mammalian metabolites of a tachykinin receptor antagonist” (Merck & Co., Inc., priority 2000, dated 2004)

Legend:
human NK1 receptor = molecular target: T1, human NK1 receptor (Homo sapiens, UniProt P25103); experiment: human NK1 receptor binding assay (125I-substance P, COS or CHO cells)
T1 construct: expressed in transfected cells
Procedure: To express the cloned human neurokinin-1 receptor (NKIR) transiently in COS, the cDNA for the human NKIR was cloned into the expression vector pCDM9 which was derived from pCDM8 (INVITROGEN) by inserting the ampicillin resistance gene (nucleotide 1973 to 2964 from BLUESCRIPT SK+) into the Sac II site. Transfection of 20 ug of the plasmid DNA into 10 million COS cells was achieved by electroporation in 800 ul of transfection buffer (135 mM NaCl, 1.2 mM CaCl2, 1.2 mM MgCl2, 2.4 mM K2HPO4, 0.6 mM KH2PO4, 10 mM glucose, 10 mM HEPES pH 7.4) at 260 V and 950 uF using the IBI GENEZAPPER (IBI, New Haven, Conn.). The cells were incubated in 10% fetal calf serum, 2 mM glutamine, 100U/ml penicillin-streptomycin, and 90% DMEM media (GIBCO, Grand Island, N.Y.) in 5% CO2 at 37° C. for three days before the binding assay.
To establish a stable cell line expressing the cloned human NK1R, the cDNA was subcloned into the vector pRcCMV (INVITROGEN). Transfection of 20 ug of the plasmid DNA into CHO cells was achieved by electroporation in 800 ul of transfection buffer suplemented with 0.625 mg/ml Herring sperm DNA at 300 V and 950 uF using the IBI GENEZAPPER (IBI). The transfected cells were incubated in CHO media [10 % fetal calf serum, 100 U/ml pennicilin-streptomycin, 2 mM glutamine, 1/500 hypoxanthine-thymidine (ATCC), 90% IMDM media (JRH BIOSClENCES, Lenexa, Kans.), 0.7 mg/ml G418 (GIBCO)] in 5% CO2 at 37° C. until colonies were visible. Each colony was separated and propagated. The cell clone with the highest number of human NK1R was selected for subsequent applications such as drug screening.
The binding assay of human NK1R expressed in either COS or CHO cells is based on the use of ^125I-substance P (^125I-SP, from DU PONT, Boston, Mass.) as a radioactively labeled ligand which competes with unlabeled substance P or any other ligand for binding to the human NK1R. Monolayer cell cultures of COS or CHO were dissociated by the non-enzymatic solution (SPECIALTY MEDIA, Lavallette, N.J.) and resuspended in appropriate volume of the binding buffer (50 mM Tris pH 7.5, 5 mM MnCl2, 150 mM NaCl, 0.04 mg/ml bacitracin, 0.004 mg/ml leupeptin, 0.2 mg/ml BSA, 0.01 mM phosphoramidon) such that 200 ul of the cell suspension would give rise to about 10,000 cpm of specific ^125I-SP binding (approximately 50,000 to 200,000 cells). […] The bound radioactivity was separated from unbound radioactivity by GF/C filter (BRANDEL, Gaithersburg, Md.) which was pre-wetted with 0.1 % polyethylenimine. The filter was washed with 3 ml of wash buffer (50 mM Tris pH 7.5, 5 mM MnCl2, 150 mM NaCl) three times and its radioactivity was determined by gamma counter.

[1] = molecular target: T2, recombinant human CYP isozymes (Homo sapiens, UniProt P08684); experiment: metabolism by microsomes containing recombinant human CYP isozymes; assay type: in vitro ADME; conditions: parent to M-1 (N-dealkylation); M-1 to M-2 (oxidation); M-3 to M-4 (hydroxylation); M-2 to M-5 (conversion)
T2 construct: host or cells: Baculovirus-infected sf21 insect cells (microsomes)
T2 sequence (P08684 2-503 limits assumed): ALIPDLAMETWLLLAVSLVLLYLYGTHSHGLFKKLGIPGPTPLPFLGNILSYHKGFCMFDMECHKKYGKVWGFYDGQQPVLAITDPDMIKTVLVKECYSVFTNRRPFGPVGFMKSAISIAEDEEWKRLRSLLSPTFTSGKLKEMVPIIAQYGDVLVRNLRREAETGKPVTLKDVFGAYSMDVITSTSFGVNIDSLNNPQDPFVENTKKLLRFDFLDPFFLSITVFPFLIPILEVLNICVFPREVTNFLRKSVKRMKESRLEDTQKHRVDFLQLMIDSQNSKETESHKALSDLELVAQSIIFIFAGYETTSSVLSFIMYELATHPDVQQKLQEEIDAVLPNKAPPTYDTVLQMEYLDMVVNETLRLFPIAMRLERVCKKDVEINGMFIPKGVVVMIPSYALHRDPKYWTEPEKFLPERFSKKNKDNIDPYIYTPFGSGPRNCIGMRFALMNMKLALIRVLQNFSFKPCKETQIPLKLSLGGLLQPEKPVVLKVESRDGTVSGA
Procedure: Hepatocytes were harvested from male Sprague-Dawley rat livers or human livers and cultured on a matrigel support and treated with 0.1 μM dexamethasone or 50 μM rifampicin, respectively, for 48 hr prior to the addition of the test compounds. A 2.5 mM stock solution of [^14C]2-(R)-(1-(R)-(3,5-bis(trifluoromethyl)-phenyl)ethoxy)-3-(S)-(4-fluoro)phenyl-4-(3-(5-oxo-1H,4H-1,2,4-triazolo)methylmorpholine, [^14C]M-1 or [^14C]M-2 in DMSO was added to the plates such that the final concentration of test compound was 25 μM and DMSO was 1% (v/v). The cultures were incubated for 4, 6 or 24 hr for rat hepatocytes and 48 hr for human hepatocytes. The incubation mixtures (500 μL) contained 10 μM of test compound, 100 mM phosphate buffer pH 7.4, NADPH-regenerating system, microsomes containing expressed CYP isoforms (CYP1A2, CYP2A6, CYP2B6, CYP2C8, CYP2C9, CYP2C19, CYP2D6, CYP2E1 or CYP3A4) and cytochrome P-450 reductase. The reactions were initiated by adding NADP and proceeded at 37° C. for 15-45 min. Acetonitrile extracts from microsomal and hepatocyte incubates were dissolved in 50% aqueous methanol and fractionated by HPLC. The separation was accomplished on a Zorbax RX C8 analytical column (5 μm, 4.6×250 mm). The mobile phase consisted of solvent A (10 mM ammonium acetate in water) and solvent B (7.3 mM ammonium acetate in 92.7% acetonitrile and 7.3% methanol. The column was eluted by a linear gradient from 35 to 80% B over 40 min at a flow rate of 1 mL/min. Fractions of major metabolites were subjected to LC-MS/MS analysis. Further purification was done using isocratic conditions prior to NMR analysis.
The incubation mixtures (500 μL) contained 10 or 25 μM of test compounds, 100 mM phosphate buffer pH 7.4, NADPH-regenerating system (5 mM glucose-6-phosphate, 1 mM NADP and 0.7 I.U/mL glucose 6-phosphate dehydrogenase), 0.5 to 2 mg/mL liver microsomal protein prepared from rats and humans or microsomes from Baculovirus-infected sf21 cells containing 20 to 200 pmol expressed CYP isoforms (CYP1A2, CYP2A6, CYP2B6, CYP2C8, CYP2C9, CYP2C19, CYP2D6, CYP2E1 or CYP3A4) and cytochrome P450 reductase. Stock solutions of the substrates in methanol were made such that final concentration of methanol in the reaction mixture was 3%. The reactions were initiated by adding 50 μL of 10 mM NADP and proceeded at 37° C. for 15-45 min. After incubation, the reactions were terminated by the addition of four volumes of acetonitrile. The suspensions were mixed vigorously and centrifuged at 3000×g for 5 min. The supernatants were dried and redissolved in 50% methanol for HPLC analysis using method A described below.

[2] = oxidative metabolism in liver microsomes from rats; assay type: in vitro ADME; conditions: rat liver microsomes, 45 min
Procedure: (§1) All liver microsomal and cytosolic fractions were prepared using the following procedure. Thawed livers were homogenized with 2 volumes of 50 mM Tris-buffer (pH 7.5) containing 1.15% KCl. For microsomal and cytosolic preparations, the homogenate was centrifuged for 20 min at 9,000×g and the resulting supernatant was centrifuged for 60 min at 105,000×g. The resulting cytosolic fractions were re-centrifuged at 105,000×g for 60 min. Fractions of cytosol were aliquoted into small tubes and stored at −70° C. Subsequently, the microsomal pellets were washed with 10 mM EDTA containing 1.15% KCl and were centrifuged at 105,000×g for 60 min. Washed microsomes were resuspended in 10 mM potassium phosphate buffer (pH 7.4) containing 250 mM sucrose, aliquoted into small tubes, and stored at −70° C. Protein concentrations were determined by a modified Lowry assay (Smith et al., 1985). The specific cytochrome P450 content in each microsomal preparation was measured as described by Omura and Sato, J. Biol. Chem. 239, 2370-2378 (1964). […]
(§2) Method A was conducted on a Shimadzu HPLC system (Shimadzu Scientific Instruments Inc., Columbia Md.). The parent compounds and their metabolites were monitored directly using a radiometric detector (INUS Systems Inc. Tampa, Fla.) and Ultima-Flow M (Packard Instrument Co., Meridan Conn.) as scintillant at a flow rate of 3 mL/min. […]

[3] = oxidative metabolism in liver microsomes from humans; assay type: in vitro ADME; conditions: human liver microsomes, 45 min
Procedure: as §1, §2

T1 sequence (P25103 whole entry): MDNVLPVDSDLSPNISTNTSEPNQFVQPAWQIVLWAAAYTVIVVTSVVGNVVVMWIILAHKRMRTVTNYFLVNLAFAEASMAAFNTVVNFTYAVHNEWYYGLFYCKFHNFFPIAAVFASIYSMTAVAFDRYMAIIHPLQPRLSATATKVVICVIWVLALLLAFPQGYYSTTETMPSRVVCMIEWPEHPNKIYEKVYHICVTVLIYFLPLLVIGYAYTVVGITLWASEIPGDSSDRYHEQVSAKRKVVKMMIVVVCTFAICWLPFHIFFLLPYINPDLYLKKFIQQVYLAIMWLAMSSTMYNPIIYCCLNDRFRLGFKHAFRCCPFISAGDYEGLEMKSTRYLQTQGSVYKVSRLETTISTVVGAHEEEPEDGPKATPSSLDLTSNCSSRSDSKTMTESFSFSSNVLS

| SMILES | IC50 (human NK1 receptor) [nM] | CYP isozyme primarily responsible for the metabolic step [1] | conversion in microsomes in the presence of an NADPH regenerating system [2] [%] | conversion in microsomes in the presence of an NADPH regenerating system [3] [%] |
| --- | --- | --- | --- | --- |
| C[C@@H](O[C@@H](OCC(=O)O)C(O)c1ccc(F)cc1)c1cc(C(F)(F)F)cc(C(F)(F)F)c1 (stereo partly drawn) [Metabolite M-6, [(1R)-1-[(1R)-1-[3,5-bis(trifluoromethyl)phenyl]ethoxy]-2-(4-fluorophenyl)-2-hydroxyethoxy]acetic acid] | 18 |  |  |  |
| C[C@@H](O[C@H]1OCC(=O)N[C@H]1c1ccc(F)cc1)c1cc(C(F)(F)F)cc(C(F)(F)F)c1 [Metabolite M-3, (5S,6R)-6-[(1R)-1-[3,5-bis(trifluoromethyl)phenyl]ethoxy]-5-(4-fluorophenyl)-3-morpholinone] | 4 | CYP3A4 |  |  |
| C[C@@H](O[C@H]1OCCN=C1c1ccc(F)cc1)c1cc(C(F)(F)F)cc(C(F)(F)F)c1 [Metabolite M-2, (2R)-2-[(1R)-1-[3,5-bis(trifluoromethyl)phenyl]ethoxy]-3-(4-fluorophenyl)-5,6-dihydro-2H-1,4-oxazine] | ~10 | CYP3A4 |  |  |
| C[C@@H](O[C@H]1OCCN(Cc2n[nH]c(=O)[nH]2)[C@H]1c1ccc(F)cc1)c1cc(C(F)(F)F)cc(C(F)(F)F)c1 [Parent Compound, 5-[[(2R,3S)-2-[(1R)-1-[3,5-bis(trifluoromethyl)phenyl]ethoxy]-3-(4-fluorophenyl)4-morpholinyl]methyl]-1,2-dihydro-3H-1,2,4-triazol-3-one, reference compound] |  | CYP3A4 | < 2 | < 2 |
